Target: T1, ERR1 (also known as ERR-α or ERR-1) (Homo sapiens, UniProt P11474)
T1 sequence (P11474 193-421 limits assumed): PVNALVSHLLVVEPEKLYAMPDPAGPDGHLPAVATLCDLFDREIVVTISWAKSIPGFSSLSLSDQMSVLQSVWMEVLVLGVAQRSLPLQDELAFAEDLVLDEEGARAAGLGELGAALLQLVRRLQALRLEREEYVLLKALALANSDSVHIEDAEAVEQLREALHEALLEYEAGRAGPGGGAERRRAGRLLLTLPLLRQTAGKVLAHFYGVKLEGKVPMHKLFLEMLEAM
Experiment: TR-FRET assay (disruption of co-activator peptide binding)
Assay type: biochemical
Conditions: 6His-tagged ERR1 LBD, GST-hSRC2 co-activator polypeptide; average of 3 independent experiments
Method in brief: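 Compound-induced loss of co-activator recruitment, read by time-resolved FRET (excitation 340 nm; 615 and 665 nm emission) after 4-18 h at 25 °C. Reagents: 6 nM ERR1LBD, 6 nM GST-SRC-2, 30 nM Eu cryptate, 7.5 nM XL665, pH 8 Tris buffer. Values: hyperbolic fits averaged over 3 independent runs.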

Row | SMILES | EC50
1 | CC(N[C@H]1CCN(C2=NC(=O)/C(=C/c3ccc4c(cnn4Cc4ccc(C(F)(F)F)cc4C(F)(F)F)c3)S2)C1)C(N)=O (stereo partly drawn) [Example 264, N-2-{(3S)-1-[5-({1-[2,4-Bis(trifluoromethyl)benzyl]-1H-indazol-5-yl}methylidene)-4-oxo-4,5-dihydro-1,3-thiazol-2-yl]pyrrolidin-3-yl}alaninamide] | 0.047 µM
2 | COc1ccc(Cn2ncc3cc(/C=C4\SC(N5CC(C(=O)O)C5)=NC4=O)ccc32)c(C(F)(F)F)c1 [Example 33, 1-{5-[1-(4-M ethoxy-2-trifluoromethyl-benzyl)-1H-indazol-5-ylmethylene]-4-oxo-4,5-dihydro-thiazol-2-yl}-azetidine-3-carboxylic acid] | 0.0044 µM
3 | C=C(C)c1ccc(Cn2ncc3cc(/C=C4\SC(N5CCN[C@@H](CO)C5)=NC4=O)ccc32)c(Cl)c1 [Example 230, 5-({1-[2-Chloro-4-(1-methylethenyl)benzyl]-1H-indazol-5-yl}methylidene)-2-[3-(R)-(hydroxymethyl)piperazin-1-yl]-1,3-thiazol-4(5H)-one] | 0.134 µM
4 | O=C1N=C(N2CCN(C(=O)C3CC3)[C@@H](CO)C2)S/C1=C\c1ccc2c(cnn2Cc2ccc(C(F)(F)F)cc2C(F)(F)F)c1 [Example 215, 5-({1-[2,4-Bis(trifluoromethyl)benzyl]-1H-indazol-5-yl}methylidene)-2-[4-(cyclopropylcarbonyl)-3-(R)-(hydroxymethyl)piperazin-1-yl]-1,3-thiazol-4(5H)-one] | 0.048 µM
5 | O=C1N=C(N2CCO[C@@H](CO)C2)S/C1=C\c1ccc2c(cnn2Cc2ccc(Br)cc2C(F)(F)F)c1 [Example 237] | 0.006 µM
6 | O=C1N=C(N2CCCO2)S/C1=C\c1ccc2c(cnn2Cc2ccc(Cl)cc2C(F)(F)F)c1 [Example 126, 5-[1-(4-Chloro-2-trifluoromethyl-benzyl)-1H-indazol-5-ylmethylene]-2-isoxazolidin-2-yl-thiazol-4-one] | 0.024 µM
7 | C[C@@H]1CNCCN1C1=NC(=O)/C(=C/c2ccc3c(cnn3Cc3ccc(Cl)cc3C(F)(F)F)c2)S1 [Example 83, 5-[1-(4-Chloro-2-trifluoromethyl-benzyl)-1H-indazol-5-ylmethylene]-2-(2-(R)-methyl-piperazin-1-yl)-thiazol-4-one] | 0.015 µM
8 | CC(C)(O)c1ccc(Cn2ncc3cc(/C=C4\SC(N5CCO[C@H](CO)C5)=NC4=O)ccc32)c(C(F)(F)F)c1 [Example 244, 5-({1-[4-(1-Hydroxy-1-methylethyl)-2-(trifluoromethyl)benzyl]-1H-indazol-5-yl}methylidene)-2-[2-(S)-(hydroxymethyl)morpholin-4-yl]-1,3-thiazol-4(5H)-one] | 0.11 µM
9 | COC(=O)COC1CCN(C2=NC(=O)/C(=C/c3ccc4c(cnn4Cc4ccc(Cl)cc4C(F)(F)F)c3)S2)CC1 [Example 130] | 0.032 µM
10 | O=C1N=C(N2CCCC(NCCO)C2)S/C1=C\c1ccc2c(cnn2Cc2ccc(C(F)(F)F)cc2C(F)(F)F)c1 (stereo not shown) [Example 267, 5-({1-[2,4-Bis(trifluoromethyl)benzyl]-1H-indazol-5-yl}methylidene)-2-{3-[(2-hydroxyethyl)amino]piperidin-1-yl}-1,3-thiazol-4(5H)-one] | 0.043 µM
11 | CCOC(=O)N1CCCN(C2=NC(=O)/C(=C/c3ccc4c(cnn4Cc4ccc(Cl)cc4C(F)(F)F)c3)S2)CC1 [Example 128, 4-{5-[1-(4-Chloro-2-trifluoromethyl-benzyl)-1H-indazol-5-ylmethylene]-4-oxo-4,5-dihydro-thiazol-2-yl}-[1,4]diazepane-1-carboxylic acid ethyl ester] | 0.032 µM
12 | CN1CCCN(C2=NC(=O)/C(=C/c3ccc4c(cnn4Cc4ccc(C(F)(F)F)cc4C(F)(F)F)c3)S2)CC1 [Example 42, 5-[1-(2,4-Bis-trifluoromethyl-benzyl)-1H-indazol-5-ylmethylene]-2-(4-methyl-[1,4]diazepan-1-yl)-thiazol-4-one] | 0.0042 µM
13 | CC(C)(C)OC[C@@H]1CN(C2=NC(=O)/C(=C/c3ccc4c(cnn4Cc4ccc(C(F)(F)F)cc4C(F)(F)F)c3)S2)CCO1 [Example 143, 5-({1-[2,4-Bis(trifluoromethyl)benzyl]-1H-indazol-5-yl}methylidene)-2-[2(S)-(tert-butoxymethyl)morpholin-4-yl]-1,3-thiazol-4(5H)-one] | 0.056 µM
14 | COC(=O)C1CCN(C2=NC(=O)/C(=C/c3ccc4c(cnn4Cc4ccc(C(F)(F)F)cc4C(F)(F)F)c3)S2)CC1 [Example 190, Methyl 1-[5-({1-[2,4-bis(trifluoromethyl)benzyl]-1H-indazol-5-yl}methylidene)-4-oxo-4,5-dihydro-1,3-thiazol-2-yl]piperidine-4-carboxylate] | 0.053 µM
15 | O=C1N=C(N2CC(O)C2)S/C1=C\c1ccc2c(cnn2Cc2ccc(Cl)cc2C(F)(F)F)c1 [Example 68, 5-[1-(4-Chloro-2-trifluoromethyl-benzyl)-1H-indazol-5-ylmethylene]-2-(3-hydroxy-azetidin-1-yl)-thiazol-4-one] | 0.0096 µM
16 | CCN1CCN(C2=NC(=O)/C(=C/c3ccc4c(cnn4Cc4ccc(Cl)cc4C(F)(F)F)c3)S2)CC1 [Example 63, 5-[1-(4-Chloro-2-trifluoromethyl-benzyl)-1H-indazol-5-ylmethylene]-2-(4-ethyl-piperazin-1-yl)-thiazol-4-one] | 0.054 µM
17 | NC1CCN(C2=NC(=O)/C(=C/c3ccc4c(cnn4Cc4ccc(Cl)cc4C(F)(F)F)c3)S2)CC1 [Example 57, 2-(4-Amino-piperidin-1-yl)-5-[1-(4-chloro-2-trifluoromethyl-benzyl)-1H-indazol-5-ylmethylene]-thiazol-4-one] | 0.0121 µM
18 | C[C@@H]1CN(C)CCN1C1=NC(=O)/C(=C/c2ccc3c(cnn3Cc3ccc(C(F)(F)F)cc3C(F)(F)F)c2)S1 [Example 192, 5-({1-[2,4-Bis(trifluoromethyl)benzyl]-1H-indazol-5-yl}methylidene)-2-(2-(R),4-dimethylpiperazin-1-yl)-1,3-thiazol-4(5H)-one] | 0.016 µM
19 | CNC(=O)[C@H]1CN(C2=NC(=O)/C(=C/c3ccc4c(cnn4Cc4ccc(C(F)(F)F)cc4C(F)(F)F)c3)S2)CCN1 [Example 227, (2R)-4-[5-({1-[2,4-Bis(trifluoromethyl)benzyl]-1H-indazol-5-yl}methylidene)-4-oxo-4,5-dihydro-1,3-thiazol-2-yl]-N-methylpiperazine-2-carboxamide] | 0.015 µM
20 | N[C@H]1CCCN(C2=NC(=O)/C(=C/c3ccc4c(cnn4Cc4ccc(Cl)cc4C(F)(F)F)c3)S2)C1 [Example 60, 2-(3-(S)-Amino-piperidin-1-yl)-5-[1-(4-chloro-2-trifluoromethyl-benzyl)-1H-indazol-5-ylmethylene]-thiazol-4-one] | 0.0197 µM
21 | NC(=O)C1CCN(C2=NC(=O)/C(=C/c3ccc4c(cnn4Cc4ccc(C(F)(F)F)cc4C(F)(F)F)c3)S2)CC1 [Example 106, 1-{5-[1-(2,4-Bis-trifluoromethyl-benzyl)-1H-indazol-5-ylmethylene]-4-oxo-4,5-dihydro-thiazol-2-yl}-piperidine-4-carboxylic acid amide] | 0.021 µM
22 | O=C1N=C(N2CCN[C@H](CO)C2)S/C1=C\c1ccc2c(cnn2Cc2ccc(Cl)cc2C(F)(F)F)c1 [Example 206, 5-({1-[4-Chloro-2-(trifluoromethyl)benzyl]-1H-indazol-5-yl}methylidene)-2-[3-(S)-(hydroxymethyl)piperazin-1-yl]-1,3-thiazol-4(5H)-one] | 0.028 µM
23 | CCN1CCN(C2=NC(=O)/C(=C/c3ccc4c(cnn4Cc4ccc(C(F)(F)F)cc4C(F)(F)F)c3)S2)CC1 [Example 67, 5-[1-(2,4-Bis-trifluoromethyl-benzyl)-1H-indazol-5-ylmethylene]-2-(4-ethyl-piperazin-1-yl)-thiazol-4-one] | 0.021 µM
24 | O=C1N=C(N2CCn3cccc3C2)S/C1=C\c1ccc2c(cnn2Cc2ccc(C(F)(F)F)cc2C(F)(F)F)c1 [Example 169, 5-[1-(2,4-Bis-trifluoromethyl-benzyl)-1H-indazol-5-ylmethylene]-2-(3,4-dihydro-1H-pyrrolo[1,2-a]pyrazin-2-yl)-thiazol-4-one] | 0.225 µM
25 | Cc1nn(Cc2ccc(Cl)cc2C(F)(F)F)c2ccc(/C=C3\SC(N4CCN[C@H](CO)C4)=NC3=O)cc12 [Example 277, 5-({1-[4-Chloro-2-(trifluoromethyl)benzyl]-3-methyl-1H-indazol-5-yl}methylidene)-2-[(3S)-3-(hydroxymethyl)piperazin-1-yl]-1,3-thiazol-4(5H)-one] | 0.009 µM
26 | O=C1N=C(N2CCC[C@H](C(=O)O)C2)S/C1=C\c1ccc2c(cnn2Cc2ccc(C(F)(F)F)cc2C(F)(F)F)c1 [Example 37, 1-{5-[1-(2,4-Bis-trifluoromethyl-benzyl)-1H-indazol-5-ylmethylene]-4-oxo-4,5-dihydro-thiazol-2-yl}-piperidine-3-(S)-carboxylic acid] | 0.0053 µM
27 | O=C1N=C(N2CC(C(=O)O)C2)S/C1=C\c1ccc2c(cnn2Cc2ccc(Cl)cc2C2CC2)c1 [Example 94, 1-(5-[1-(4-Chloro-2-cyclopropyl-benzyl)-1H-indazol-5-ylmethylene]-4-oxo-dihydro-thiazol-2-yl)-azetidine-3-carboxylic acid] | 0.026 µM
28 | O=C1N=C(N2CCO[C@H](CO)C2)S/C1=C\c1ccc2c(cnn2Cc2ccc(O)cc2C(F)(F)F)c1 [Example 251, 2-[(2S)-2-(Hydroxymethyl)morpholin-4-yl]-5-({1-[4-hydroxy-2-(trifluoromethyl)benzyl]-1H-indazol-5-yl}methylidene)-1,3-thiazol-4(5H)-one] | 0.004 µM
